# From PMC8800111 (The Journal of Biological Chemistry, 2021)
# How the values were obtained:
# Format in all cases: cell-based
# [1] = biological target: proteins of U3A human fibrosarcoma cells (4462 proteins detected) (Homo sapiens, UniProt Q9NT62); details: protein ATG3; soluble abundance after heat, U3A cells
# [2] = biological target: proteins of U3A human fibrosarcoma cells (4462 proteins detected) (Homo sapiens, UniProt P50213); details: protein IDH3A; U3A cells
# [3] = biological target: proteins of U3A human fibrosarcoma cells (4462 proteins detected) (Homo sapiens, UniProt P63173); details: protein RPL38; U3A cells
# [4] = biological target: proteins of U3A human fibrosarcoma cells (4462 proteins detected) (Homo sapiens, UniProt Q96DM3); details: protein C18orf8; U3A cells
# Chain of proteins of U3A human fibrosarcoma cells (4462 proteins detected) (Homo sapiens, UniProt Q96DM3) (Q96DM3 whole entry): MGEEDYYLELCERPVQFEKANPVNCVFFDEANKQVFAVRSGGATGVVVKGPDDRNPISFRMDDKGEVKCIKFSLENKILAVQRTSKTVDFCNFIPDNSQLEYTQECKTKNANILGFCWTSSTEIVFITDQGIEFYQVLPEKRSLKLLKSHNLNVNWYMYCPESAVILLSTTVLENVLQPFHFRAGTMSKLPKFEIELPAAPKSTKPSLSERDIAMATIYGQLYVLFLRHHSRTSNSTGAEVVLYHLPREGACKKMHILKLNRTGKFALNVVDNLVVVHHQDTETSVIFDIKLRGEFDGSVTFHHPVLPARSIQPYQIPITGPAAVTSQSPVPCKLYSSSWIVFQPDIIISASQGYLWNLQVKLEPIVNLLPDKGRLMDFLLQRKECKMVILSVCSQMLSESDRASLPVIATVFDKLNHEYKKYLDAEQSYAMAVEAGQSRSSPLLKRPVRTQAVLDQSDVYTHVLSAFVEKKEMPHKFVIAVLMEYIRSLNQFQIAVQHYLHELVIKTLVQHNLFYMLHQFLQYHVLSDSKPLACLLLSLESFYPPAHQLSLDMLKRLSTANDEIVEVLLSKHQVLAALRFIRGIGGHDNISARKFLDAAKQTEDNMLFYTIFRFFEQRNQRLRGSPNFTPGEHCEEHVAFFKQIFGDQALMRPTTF
# Chain of proteins of U3A human fibrosarcoma cells (4462 proteins detected) (Homo sapiens, UniProt P50213) (P50213 28-366): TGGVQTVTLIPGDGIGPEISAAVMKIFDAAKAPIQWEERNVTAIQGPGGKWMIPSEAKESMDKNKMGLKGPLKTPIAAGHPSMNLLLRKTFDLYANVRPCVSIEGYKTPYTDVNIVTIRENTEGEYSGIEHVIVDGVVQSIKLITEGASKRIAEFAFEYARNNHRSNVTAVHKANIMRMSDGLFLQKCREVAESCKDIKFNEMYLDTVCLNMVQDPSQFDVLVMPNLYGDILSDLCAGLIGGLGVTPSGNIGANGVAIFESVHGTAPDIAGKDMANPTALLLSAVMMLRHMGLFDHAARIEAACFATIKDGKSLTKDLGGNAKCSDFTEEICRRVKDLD
# Chain of proteins of U3A human fibrosarcoma cells (4462 proteins detected) (Homo sapiens, UniProt Q9NT62) (Q9NT62 whole entry): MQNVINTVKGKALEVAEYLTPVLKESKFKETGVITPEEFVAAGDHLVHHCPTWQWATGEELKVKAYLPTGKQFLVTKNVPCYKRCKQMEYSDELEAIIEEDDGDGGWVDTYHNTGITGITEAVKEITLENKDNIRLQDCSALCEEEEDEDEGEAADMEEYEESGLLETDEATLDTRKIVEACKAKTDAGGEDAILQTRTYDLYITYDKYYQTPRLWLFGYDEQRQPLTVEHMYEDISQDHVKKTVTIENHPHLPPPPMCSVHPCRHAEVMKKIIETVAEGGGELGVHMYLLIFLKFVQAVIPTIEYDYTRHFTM
structure (smiles),measurement,setting,value
CCc1nc(N)nc(N)c1-c1ccc(Cl)cc1 [pyrimethamine],Log2 (PYR/DMSO),[1],0.13
same,Log2 (PYR/DMSO),[2],0.16
same,Log2 (PYR/DMSO),[3],0.18
same,Log2 (PYR/DMSO),[4],0.17
